A short description of test [1]: Anticancer activity against human BT549 cells after 48 hrs by MTT assay. The format is functional, cell-based. The note with it: BT-549, 48 h.
Test [2] relates to MDA-MB-231. Nature of the test: Anticancer activity against human MDA-MB-231 cells after 48 hrs by MTT assay. The class given is functional, cell-based. The note with it: MDA-MB-231, 48 h. On the technique in general: Tetrazolium assays rely on reduction of a dye to a coloured formazan, in cell work by metabolically active cells.
The nature of test [3]: Anticancer activity against human PC3 cells after 48 hrs by MTT assay. The note with it: PC-3, 48 h. The format is functional, cell-based.
Test [4] in a line: Anticancer activity against human DU145 cells after 48 hrs by MTT assay. The class given is functional, cell-based. The note with it: DU-145, 48 h.
A short description of test [5]: Anticancer activity against human PA1 cells after 48 hrs by MTT assay. The class given is functional, cell-based. The note with it: PA-1, 48 h.
Test [6] in a line: Cytotoxicity against human RWPE1 cells after 48 hrs by MTT assay. The class given is cell-based. The note with it: RWPE-1, 48 h.
Test [7] in a line: Selectivity index, ratio of IC50 for human RWPE1 cells to IC50 for human DU145 cells. The format is functional.

A value given as a limit tells only on which side of the number the result lay.

On to `O=C1N(Cc2ccc(Br)cc2)c2ccccc2C1(O)Cc1nnn[nH]1` (centres undefined), for which the IC50 in test [1] is 73.4 µM; in test [2], over 100 µM; in test [3] it was 10.1 µM; in test [4] it was 7.01 µM; in test [5], 38.9 µM; in test [6], 76 µM. Moreover, the “Ratio IC50” value in test [7] came to 10.

Turning to `Cc1ccc2c(c1)C(O)(Cc1nnn[nH]1)C(=O)N2C` (centres undefined), the IC50 in test [1], in test [2], in test [3], in test [4] and in test [5] was over 100 µM each time.

`CN1C(=O)C(O)(Cc2nnn[nH]2)c2cc(Br)ccc21` (centres undefined): the IC50 is over 100 µM in test [1]; 67.3 µM in test [2]; over 100 µM in test [3]; over 100 µM in test [4]; over 100 µM in test [5].

In the case of `CCN1C(=O)C(O)(Cc2nnn[nH]2)c2cc(C)ccc21` (centres undefined), the IC50 was over 100 µM in test [1]; over 100 µM in test [2]; over 100 µM in test [3]; 14.6 µM in test [4]; over 100 µM in test [5]; over 100 µM in test [6].

Consider `CN1C(=O)C(O)(Cc2nnn[nH]2)c2ccccc21` (centres undefined), for which the IC50 in test [1] was over 100 µM; in test [2], over 100 µM; in test [3], 44.8 µM; in test [4], 36.8 µM; in test [5], 45.5 µM.

As to `O=C1N(Cc2ccc(Br)cc2)c2ccc(Cl)cc2C1(O)Cc1nnn[nH]1` (centres undefined), the IC50 in test [1] is 74.5 µM; in test [2] it was over 100 µM; in test [3], 87.9 µM; in test [4], 19.5 µM; in test [5], 35.8 µM.

Take `O=c1[nH]cc(F)c(=O)[nH]1` [FLUOROURACIL]: the IC50 came out at 19.8 µM in test [1]; 45.4 µM in test [2]; 68.3 µM in test [3]; 39.2 µM in test [4]; 7.59 µM in test [5].

As for `CCN1C(=O)C(O)(Cc2nnn[nH]2)c2cc(Br)ccc21` (centres undefined), the IC50 in test [1], in test [2], in test [3], in test [4] and in test [5] was over 100 µM throughout.

For `CN1C(=O)C(O)(Cc2nnn[nH]2)c2cc(Cl)ccc21` (centres undefined), the IC50 was over 100 µM in test [1]; over 100 µM in test [2]; over 100 µM in test [3]; 76 µM in test [4]; over 100 µM in test [5].

As for `O=C1N(Cc2ccccc2)c2ccc(Cl)cc2C1(O)Cc1nnn[nH]1` (centres undefined), the IC50 was over 100 µM in test [1]; 30.3 µM in test [2]; over 100 µM in test [3]; over 100 µM in test [4]; 100 µM in test [5].

Regarding `CN1C(=O)C(O)(Cc2nnn[nH]2)c2cc(F)ccc21` (centres undefined), the IC50 in test [1] was over 100 µM; in test [2], over 100 µM; in test [3], 38.2 µM; in test [4], over 100 µM; in test [5] it was over 100 µM.

For `CCN1C(=O)C(O)(Cc2nnn[nH]2)c2cc(Cl)ccc21` (centres undefined), the 50% inhibitory concentration (IC50) in test [1] is 85.4 µM; in test [2] it was 84.9 µM; in test [3], 79.3 µM; in test [4] it was 21.5 µM; in test [5], 49.5 µM.

For `O=C1N(Cc2ccccc2)c2ccccc2C1(O)Cc1nnn[nH]1` (centres undefined), the IC50 in test [1] was over 100 µM; in test [2], 74.1 µM; in test [3], over 100 µM; in test [4] it was over 100 µM; in test [5], over 100 µM.

As for `CCN1C(=O)C(O)(Cc2nnn[nH]2)c2ccccc21` (centres undefined), the IC50 in test [1], in test [2], in test [3], in test [4] and in test [5] was over 100 µM throughout.

Turning to `O=C1N(Cc2ccc(Br)cc2)c2ccc(Br)cc2C1(O)Cc1nnn[nH]1` (centres undefined), the IC50 in test [1] is 88.8 µM; in test [2], 65.4 µM; in test [3] it was over 100 µM; in test [4], 59.6 µM; in test [5] it was over 100 µM.

For the molecule `O=C1N(Cc2ccc(Br)cc2)c2ccc(F)cc2C1(O)Cc1nnn[nH]1` (centres undefined), the IC50 in test [1] was over 100 µM; in test [2], over 100 µM; in test [3], over 100 µM; in test [4], 14.4 µM; in test [5], over 100 µM; in test [6], over 100 µM.

For `O=C1N(Cc2ccccc2)c2ccc(Br)cc2C1(O)Cc1nnn[nH]1` (centres undefined), the IC50 was 39.6 µM in test [1]; 96.1 µM in test [2]; 75.8 µM in test [3]; 46.2 µM in test [4]; 74.4 µM in test [5].

For the molecule `O=C1N(Cc2ccccc2)c2ccc(F)cc2C1(O)Cc1nnn[nH]1` (centres undefined), the half-inhibitory concentration (IC50) in test [1] was 78.7 µM; in test [2], 27.2 µM; in test [3] it was over 100 µM; in test [4], over 100 µM; in test [5] it was over 100 µM.

The term IC50 denotes the concentration that inhibits the measured activity by half.

Source of the values: ChEMBL document CHEMBL3734649, “H2O-mediated isatin spiro-epoxide ring opening with NaCN: Synthesis of novel 3-tetrazolylmethyl-3-hydroxy-oxindole hybrids and their anticancer evaluation” (Eur J Med Chem, 2015).
